From US20140249139A1, “Quinazoline Derivatives” (NOVARTIS AG, priority 2011, published 2014)

Columns and labels:
PI3K alpha = molecular target: T1, PI3K alpha (Homo sapiens, UniProt P42336); assay: Enzymatic PI3K alpha isoform inhibition (lipid kinase activity, Kinase-Glo); format: biochemical; details: enzymatic assay
T1 construct: for the p110-a subunit (with a deletion of the first 20 amino acids) are generated; His tag (C); made in house; host or cells: baculovirus BV1075; Tn5 (Trichoplusia ni) or TiniPro insect cells
T1 sequence (P42336 with tags, fused parts or gaps limits assumed, species assumed): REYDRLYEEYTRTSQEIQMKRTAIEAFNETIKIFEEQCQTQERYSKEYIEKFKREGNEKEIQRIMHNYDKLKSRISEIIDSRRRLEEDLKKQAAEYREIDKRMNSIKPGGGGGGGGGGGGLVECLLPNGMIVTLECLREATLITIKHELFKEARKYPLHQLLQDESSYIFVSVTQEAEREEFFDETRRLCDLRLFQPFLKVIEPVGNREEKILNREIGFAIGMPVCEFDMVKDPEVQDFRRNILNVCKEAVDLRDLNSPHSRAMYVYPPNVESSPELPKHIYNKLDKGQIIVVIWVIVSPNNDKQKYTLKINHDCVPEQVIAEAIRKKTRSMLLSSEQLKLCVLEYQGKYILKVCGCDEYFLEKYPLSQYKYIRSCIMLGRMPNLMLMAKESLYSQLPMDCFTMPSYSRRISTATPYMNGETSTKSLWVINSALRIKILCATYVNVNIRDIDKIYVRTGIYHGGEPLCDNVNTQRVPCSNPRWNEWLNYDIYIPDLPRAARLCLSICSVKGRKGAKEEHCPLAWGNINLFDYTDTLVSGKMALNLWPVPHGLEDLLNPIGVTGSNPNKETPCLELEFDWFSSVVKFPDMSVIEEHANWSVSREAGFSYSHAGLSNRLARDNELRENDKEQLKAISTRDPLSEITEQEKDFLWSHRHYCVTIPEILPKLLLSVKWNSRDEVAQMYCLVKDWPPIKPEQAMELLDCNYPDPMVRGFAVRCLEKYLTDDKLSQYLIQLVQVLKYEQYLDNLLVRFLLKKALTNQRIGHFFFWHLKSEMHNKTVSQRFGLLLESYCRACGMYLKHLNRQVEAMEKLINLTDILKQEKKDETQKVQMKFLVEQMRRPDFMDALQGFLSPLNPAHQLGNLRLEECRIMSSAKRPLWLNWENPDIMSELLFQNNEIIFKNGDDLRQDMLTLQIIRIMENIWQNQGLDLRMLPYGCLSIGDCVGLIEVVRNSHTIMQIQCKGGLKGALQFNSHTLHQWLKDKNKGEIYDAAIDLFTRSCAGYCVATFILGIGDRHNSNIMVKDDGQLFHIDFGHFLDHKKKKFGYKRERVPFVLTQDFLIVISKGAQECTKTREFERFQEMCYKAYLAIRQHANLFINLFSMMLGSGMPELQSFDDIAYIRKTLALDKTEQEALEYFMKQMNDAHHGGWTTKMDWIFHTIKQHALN
Method: (§1) The components of the assay are added per well as follows:
(§2) IC50 is determined by a four parameter curve fitting routine that comes along with “excel fit”.
(§3) Yet alternatively, for an ATP depletion assay, compounds of the formula I to be tested are dissolved in DMSO and directly distributed into a white 384-well plate at 0.5 μl per well. To start the reaction, 10 μl of 10 nM PI3 kinase and 5 μg/ml 1-alpha-phosphatidylinositol (PI) are added into each well followed by 10 μl of 2 μM ATP. The reaction is performed until approx 50% of the ATP is depleted, and then stopped by the addition of 20 μl of Kinase-Glo solution (Promega Corp., Madison, Wis., USA). The stopped reaction is incubated for 5 minutes and the remaining ATP is then detected via luminescence. IC50 values are then determined.

PI3K delta = molecular target: T2, PI3K delta (Homo sapiens, UniProt O00329); assay: Enzymatic PI3K delta isoform inhibition (lipid kinase activity, Kinase-Glo); format: biochemical; details: enzymatic assay
T2 construct: for the full-length p110-d subunit are generated and fused by overlapping PCR; His tag (C); made in house; host or cells: baculovirus BV1060; Tn5 (Trichoplusia ni) or TiniPro insect cells
T2 sequence (O00329 with tags, fused parts or gaps limits assumed, species assumed): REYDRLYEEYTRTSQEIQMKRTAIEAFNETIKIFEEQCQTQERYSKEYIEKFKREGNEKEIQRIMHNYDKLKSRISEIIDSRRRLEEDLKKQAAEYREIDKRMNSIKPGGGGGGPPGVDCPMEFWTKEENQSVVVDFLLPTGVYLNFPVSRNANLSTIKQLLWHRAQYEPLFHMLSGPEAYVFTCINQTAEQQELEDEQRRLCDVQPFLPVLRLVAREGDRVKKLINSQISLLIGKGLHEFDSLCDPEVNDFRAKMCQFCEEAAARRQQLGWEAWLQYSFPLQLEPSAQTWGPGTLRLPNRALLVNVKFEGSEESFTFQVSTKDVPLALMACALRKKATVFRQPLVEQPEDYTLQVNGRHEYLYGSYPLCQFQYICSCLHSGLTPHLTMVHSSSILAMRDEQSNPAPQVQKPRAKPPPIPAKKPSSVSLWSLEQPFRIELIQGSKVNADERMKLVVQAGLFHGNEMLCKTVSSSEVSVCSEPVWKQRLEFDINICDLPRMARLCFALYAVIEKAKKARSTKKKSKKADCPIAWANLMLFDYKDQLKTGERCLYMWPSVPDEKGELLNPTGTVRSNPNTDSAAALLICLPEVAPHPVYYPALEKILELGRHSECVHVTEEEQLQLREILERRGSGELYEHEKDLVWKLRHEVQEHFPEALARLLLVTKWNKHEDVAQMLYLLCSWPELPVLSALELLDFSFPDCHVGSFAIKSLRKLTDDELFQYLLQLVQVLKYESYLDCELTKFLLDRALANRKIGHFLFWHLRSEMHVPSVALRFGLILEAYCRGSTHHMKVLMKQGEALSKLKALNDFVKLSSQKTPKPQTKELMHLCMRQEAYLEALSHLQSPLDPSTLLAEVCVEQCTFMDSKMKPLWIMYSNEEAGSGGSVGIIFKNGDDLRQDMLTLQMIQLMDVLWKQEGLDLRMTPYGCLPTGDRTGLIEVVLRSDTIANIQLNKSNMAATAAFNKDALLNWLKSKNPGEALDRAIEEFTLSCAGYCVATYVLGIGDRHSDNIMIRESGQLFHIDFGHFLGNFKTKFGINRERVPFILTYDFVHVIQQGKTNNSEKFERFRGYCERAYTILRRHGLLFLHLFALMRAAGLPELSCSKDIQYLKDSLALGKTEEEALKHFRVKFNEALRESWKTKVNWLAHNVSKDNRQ
Method: as §1, §2, §3

Row | IC50 (PI3K alpha) [nM] | IC50 (PI3K delta) [nM] | SMILES
1 | 1150 | 7 | COc1ncc(-c2ccc3ncnc(-c4cncc(C(=O)N5CCOC(C)(C)C5)c4)c3c2)cc1C#N [Example 62]
2 | 505 | 6 | COc1ncc(-c2ccc3ncnc(-c4cncc(C(=O)N5CCOC(C)(C)C5)c4)c3c2)cc1F [Example 63]
3 | 583 | 11 | CC1(C)CN(C(=O)c2cncc(-c3ncnc4ccc(-c5cncc(S(C)(=O)=O)c5)cc34)c2)CCO1 [Example 64]
4 | 763 | 9.5 | COc1ccc(-c2ccc3ncnc(-c4cncc(C(=O)N5CCOC(C)(C)C5)c4)c3c2)cc1C(F)(F)F [Example 66]
5 | 306 | 7 | COc1ccc(-c2ccc3ncnc(-c4cncc(C(=O)N5CCOC(C)(C)C5)c4)c3c2)cn1 [Example 67]
6 | 97 | 3 | COc1ncc(-c2ccc3ncnc(-c4cncc(C(=O)N5CCOCC5)c4)c3c2)cc1C(F)(F)F [Example 68]
7 | 880 | 8 | COc1ncc(-c2ccc3ncnc(-c4cncc(C(=O)N5CCOCC5)c4)c3c2)cc1C#N [Example 69]
8 | 1030 | 30 | COc1ncc(-c2ccc3ncnc(-c4cncc(C(=O)N5CCOCC5)c4)c3c2)cn1 [Example 70]
9 | 550 | 8 | COc1ncc(-c2ccc3ncnc(-c4cncc(C(=O)N5CCS(=O)(=O)CC5)c4)c3c2)cc1C#N [Example 71]
10 | 69.5 | 3 | COc1ncc(-c2ccc3ncnc(-c4cncc(C(=O)N5CCN(C)C(C)(C)C5)c4)c3c2)cc1C [Example 72]
11 | 60.5 | < 3 | COc1ncc(-c2ccc3ncnc(-c4cncc(C(=O)N5CCN(C)C(C)(C)C5)c4)c3c2)cc1F [Example 73]
12 | 150 | 5 | COc1ncc(-c2ccc3ncnc(-c4cncc(C(=O)N5CCN(C)C(C)(C)C5)c4)c3c2)cc1C(F)(F)F [Example 74]
13 | 578 | 23.5 | COc1ccc(-c2ccc3ncnc(-c4cncc(C(=O)N5CCCN(C)CC5)c4)c3c2)cn1 [Example 76, {5-[6-(6-Methoxy-pyridin-3-yl)-quinazolin-4-yl]-pyridine-3-yl}-(4-methyl-[1,4]-diazepan-1-yl)-methanone]
14 | 573 | 14 | COc1ccc(-c2ccc3ncnc(-c4cncc(C(=O)N5C[C@@H]6C[C@H]5CN6C)c4)c3c2)cn1 [Example 77, {5-[6-(6-Methoxy-pyridin-3-yl)-quinazolin-4-yl]-pyridin-3-yl}-((1S,4S)-5-methyl-2,5-diaza-bicyclo[2.2.1]hept-2-yl)-methanone]
15 | 123 | 4.5 | COc1ccc(-c2ccc3ncnc(-c4cncc(C(=O)N5CCN(C)C(C)(C)C5)c4)c3c2)cn1 [Example 78, {5-[6-(6-Methoxy-pyridin-3-yl)-quinazolin-4-yl]-pyridin-3-yl}-(3,3,4-trimethyl-piperazin-1-yl)-methanone]
16 | 360 | 10 | COc1ccc(-c2ccc3ncnc(-c4cncc(C(=O)N5CCNC(C)(C)C5)c4)c3c2)cn1 [Example 79, (3,3-Dimethyl-piperazin-1-yl)-{5-[6-(6-methoxy-pyridin-3-yl)-quinazolin-4-yl]-pyridin-3-yl}-methanone]
17 | 717 | 10.5 | COc1ccc(-c2ccc3ncnc(-c4cncc(C(=O)N5CC(C)NC(C)C5)c4)c3c2)cc1C(F)(F)F (stereo not shown) [Example 80, (3,5-Dimethyl-piperazin-1-yl)-{5-[6-(4-methoxy-3-trifluoromethyl-phenyl)-quinazolin-4-yl]-pyridin-3-yl}-methanone]
18 | 1330 | 21.5 | COc1ccc(-c2ccc3ncnc(-c4cncc(C(=O)N5CCOCC5)c4)c3c2)cc1C(F)(F)F [Example 82, {5-[6-(4-Methoxy-3-trifluoromethyl-phenyl)-quinazolin-4-yl]-pyridin-3-yl}-morpholin-4-yl-methanone]

Row | IC50 (PI3K alpha) [nM] | IC50 (PI3K delta) [nM] | SMILES
19 | 904 | 21 | COc1ccc(-c2ccc3ncnc(-c4cncc(C(=O)N5CCNCC(F)(F)C5)c4)c3c2)cc1C(F)(F)F [Example 83, (6,6-Difluoro-[1,4]diazepan-1-yl)-{5-[6-(4-methoxy-3-trifluoromethyl-phenyl)-quinazolin-4-yl]-pyridin-3-yl}-methanone]
20 | 558 | 9.5 | COc1ccc(-c2ccc3ncnc(-c4cncc(C(=O)N5CCNC[C@@H]5C)c4)c3c2)cc1C(F)(F)F [Example 84, {5-[6-(4-Methoxy-3-trifluoromethyl-phenyl)-quinazolin-4-yl]-pyridin-3-yl}-((S)-2-methyl-piperazin-1-yl)-methanone]
21 | 793 | 7 | COc1ccc(-c2ccc3ncnc(-c4cncc(C(=O)N5C[C@@H]6C[C@H]5CN6)c4)c3c2)cc1C(F)(F)F [Example 85, (1S,4S)-2,5-Diaza-bicyclo[2.2.1]hept-2-yl-{5-[6-(4-methoxy-3-trifluoromethyl-phenyl)-quinazolin-4-yl]-pyridin-3-yl}-methanone]
22 | 380 | 15.5 | CCN1CCN(C(=O)c2cccc(-c3ncnc4ccc(-c5ccc(OC)nc5)cc34)c2)CC1 [Example 86, (4-Ethyl-piperazin-1-yl)-{3-[6-(6-methoxy-pyridin-3-yl)-quinazolin-4-yl]-phenyl}-methanone]
23 | 126 | < 3 | COc1ccc(-c2ccc3ncnc(-c4cccc(C(=O)N5CCN(CC(F)(F)F)CC5)c4)c3c2)cn1 [Example 87, {3-[6-(6-Methoxy-pyridin-3-yl)-quinazolin-4-yl]-phenyl}-[4-(2,2,2-trifluoro-ethyl)-piperazin-1-yl]-methanone]
24 | 100 | 2.67 | COc1ccc(-c2ccc3ncnc(-c4cccc(C(=O)N5CCNC(C)(C)C5)c4)c3c2)cn1 [Example 88, (3,3-Dimethyl-piperazin-1-yl)-{3-[6-(6-methoxy-pyridin-3-yl)-quinazolin-4-yl]-phenyl}-methanone]
25 | 99 | 4 | COc1ccc(-c2ccc3ncnc(-c4cccc(C(=O)N5CCN(C)C(C)(C)C5)c4)c3c2)cn1 [Example 89, {3-[6-(6-Methoxy-pyridin-3-yl)-quinazolin-4-yl]-phenyl}-(3,3,4-trimethyl-piperazin-1-yl)-methanone]
26 | 181 | 5.75 | COc1ccc(-c2ccc3ncnc(-c4cccc(C(=O)N5CC(C)NC(C)C5)c4)c3c2)cn1 (stereo not shown) [Example 90, (3,5-Dimethyl-piperazin-1-yl)-{3-[6-(6-methoxy-pyridin-3-yl)-quinazolin-4-yl]-phenyl}-methanone]
27 | 196 | 3.75 | COc1ccc(-c2ccc3ncnc(-c4cccc(C(=O)N5CCCN(C)CC5)c4)c3c2)cn1 [Example 92, {3-[6-(6-Methoxy-pyridin-3-yl)-quinazolin-4-yl]-phenyl}-(4-methyl-[1,4]diazepan-1-yl)-methanone]
28 | 120 | < 3 | COc1ccc(-c2ccc3ncnc(-c4cccc(C(=O)N5CCS(=O)(=O)CC5)c4)c3c2)cn1 [Example 93, (1,1-Dioxo-1lambda*6*-thiomorpholin-4-yl)-{3-[6-(6-methoxy-pyridin-3-yl)-quinazolin-4-yl]-phenyl}-methanone]
29 | 174 | 6 | COc1ccc(-c2ccc3ncnc(-c4cccc(C(=O)N5CCC(O)CC5)c4)c3c2)cn1 [Example 94, (4-Hydroxy-piperidin-1-yl)-{3-[6-(6-methoxy-pyridin-3-yl)-quinazolin-4-yl]-phenyl}-methanone]
30 | 281 | 9 | COc1ccc(-c2ccc3ncnc(-c4cccc(C(=O)N5CCOC(C)(C)C5)c4)c3c2)cn1 [Example 95, (2,2-Dimethyl-morpholin-4-yl)-{3-[6-(6-methoxy-pyridin-3-yl)-quinazolin-4-yl]-phenyl}-methanone]
31 | 316 | 6 | CCC(=O)N1CCN(C(=O)c2cccc(-c3ncnc4ccc(-c5cnc(OC)c(C#N)c5)cc34)c2)CC1 [Example 96, 2-Methoxy-5-{4-[3-(4-propionyl-piperazine-1-carbonyl)-phenyl]-quinazolin-6-yl}-nicotinonitrile]
32 | 463 | 23 | COc1ccc(-c2ccc3ncnc(-c4cccc(C(=O)N5CCNC[C@H]5C)c4)c3c2)cn1 [Example 97, {3-[6-(6-Methoxy-pyridin-3-yl)-quinazolin-4-yl]-phenyl}-((R)-2-methyl-piperazin-1-yl)-methanone]
33 | 102 | 3.5 | COc1ccc(-c2ccc3ncnc(-c4cccc(C(=O)N5CCNC[C@@H]5C)c4)c3c2)cn1 [Example 98, {3-[6-(6-Methoxy-pyridin-3-yl)-quinazolin-4-yl]-phenyl}-((S)-2-methyl-piperazin-1-yl)-methanone]
34 | 237 | 4.5 | COc1ccc(-c2ccc3ncnc(-c4cccc(C(=O)N5CCN(C)C[C@@H]5C)c4)c3c2)cn1 [Example 99, ((S)-2,4-Dimethyl-piperazin-1-yl)-{3-[6-(6-methoxy-pyridin-3-yl)-quinazolin-4-yl]-phenyl}-methanone]
35 | 188 | 5 | COc1ccc(-c2ccc3ncnc(-c4ccc(C)c(C(=O)N5CCN(C(C)=O)CC5)c4)c3c2)cn1 [Example 100, 1-(4-{5-[6-(6-Methoxy-pyridin-3-yl)-quinazolin-4-yl]-2-methyl-benzoyl}-piperazin-1-yl)-ethanone]
